In experiment [1] the target is 5-α-Reductase. The following applies: cited from earlier work; for Ki: literature value; for Ki / mode of inhibition (Reversible / Irreversible): Table I; for mode of inhibition (Reversible / Irreversible) / time dependence of 5-α-reductase inhibition: literature.
The test system of experiment [2] is human steroid 5-α-reductase. The following applies: read-out: Michaelis-Menton constant (Km) of the substrate (testosterone); determined in a separate experiment.
Experiment [3] concerns the target T1, human steroid 5-α-reductase (Homo sapiens, UniProt P31213).
T1 construct: Prostatic particles were obtained by differential centrifugation; from tissue; host or cells: hyperplastic human prostate, washed 140,000×g particulate fraction
T1 sequence (P31213 1-254): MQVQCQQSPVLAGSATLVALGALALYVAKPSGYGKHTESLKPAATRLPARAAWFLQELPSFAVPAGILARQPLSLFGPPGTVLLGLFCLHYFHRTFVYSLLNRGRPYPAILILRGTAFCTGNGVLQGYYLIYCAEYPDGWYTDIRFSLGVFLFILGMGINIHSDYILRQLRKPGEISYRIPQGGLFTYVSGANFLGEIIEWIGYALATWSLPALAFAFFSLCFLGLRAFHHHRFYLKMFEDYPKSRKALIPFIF
Nature of the experiment: biochemical. As for the experimental part: A compound of the invention, 17β-(N,N-diisopropylcarboxamide)-estr-1,3,5(10)-triene-3-phosphonic acid, was tested for potency in inhibiting human steroid 5-α-reductase using tissue from hyperplastic human prostates. In determining potency in inhibiting the human enzyme, the following procedure was employed:
Frozen human prostates were thawed and minced into small pieces (5 mm^3). The tissue was homogenized in 3 to 5 volumes of 20 mM potassium phosphate buffer, pH 6.5, containing 0.33M sucrose, 1 mM dithiothreitol, and 50 μM NADPH with a Brinkmann Polytron (Sybron Corporation, Westbury, N.Y.). The solution was subjected to sonication for 3 to 5 minutes with a Sonifier (Branson Sonic Power Co.) followed by hand homogenization in a glass-to-glass Dounce homogenizer (Kontes Glass Company, Vineland, N.J.). […]
A constant amount of [^14 C]-testosterone (52 to 55 mCi/mmol, New England Nuclear, Boston, Mass.) in ethanol and varying amounts of the potential inhibitor in ethanol were deposited in test tubes and concentrated to dryness in a SAVANT Speed Vac. […] The radiochemical content in the bands of the substrate and the products was determined with a BIOSCAN Imaging Scanner (Bioscan, Inc., Washington, D.C.). The percent of recovered radiolabel converted to product was calculated, from which enzyme activity was determined. […]

Where two headings read alike, the source gives them in different places.

For orientation: Ki means the equilibrium dissociation constant of an inhibitor or competing ligand from its target. In the case of `CC(=O)C1CCC2C3CC=C=CC(=O)CCC(=O)C3CCC12C` (centres unmarked) [(2)], in experiment [1], the inhibitory constant (Ki) is 1000 nM and the “mode of inhibition (Reversible / Irreversible)” value was “Irreversible”.

By Km is commonly meant the substrate concentration at which the rate is half of its maximum. Turning to `C[C@]12CC[C@H]3[C@@H](CCC4=CC(=O)CC[C@@]43C)[C@@H]1CC[C@@H]2O` [testosterone], the Km in experiment [2] stood at 4.5 µM.

With `C=C1CC2C(CCC3(C)C2CC[C@]3(OC(C)=O)C(C)=O)C2(C)CCC(=O)C=C12` (some centres unmarked) [(5)], in experiment [1], the Ki was 1250 nM, the “mode of inhibition (Reversible / Irreversible)” value was “Irreversible” and the “time dependence of 5-α-reductase inhibition” value is recorded as “time-dependent inactivator”.

In the case of `CC(CO)C1CCC2C3CC[C@H]4C(=[N+]=[N-])C(=O)CCC4(C)C3CCC12C` (some centres unmarked) [(3)], in experiment [1] (unit inferred), the Ki was 35 nM. Besides, in experiment [1], the “mode of inhibition (Reversible / Irreversible)” value is listed as “Irreversible” and the “time dependence of 5-α-reductase inhibition” value was “potent, time-dependent inhibitor”.

`CC(C)N(C(=O)[C@H]1CCC2C3CCc4cc(P(=O)(O)O)ccc4C3CCC21C)C(C)C` (stereo partly drawn) [Example 1, 17β-(N,N-Diisopropylcarboxamide)-estr-1,3,5(10)-triene-3-phosphonic Acid] had a Ki in experiment [3] of 50 nM.

For the compound `CC12CCC(=O)C=C1CCC1C2CCC2(C)C1CC[C@@H]2C(=O)O` (some centres unmarked) [(1)], in experiment [1], the inhibition constant Ki was 1100 nM and the “mode of inhibition (Reversible / Irreversible)” value is given as “Reversible”.

Regarding `CCN(CC)C(=O)C1CCC2C3CC[C@H]4N(C)C(=O)CCC4(C)C3CCC12C` (some centres unmarked) [(4)], in experiment [1], the Ki is 5 nM and the “mode of inhibition (Reversible / Irreversible)” value is on record as “Reversible”.

(Values after patent publication US4882319A, “Phosphonic acid substituted aromatic steroids as inhibitors of steroid 5-α-reductase” (SmithKline Beckman Corporation, priority 1988, dated 1989).)
